Reference: patent publication US6211156A (priority 1999, dated 2001)

Test system: male rats
Conditions: rat, in vivo

| Compound | effect on test peptide induced penile erection | effect on penile erections induced by 2 μg of the test peptides into the PVN | further results |
| --- | --- | --- | --- |
| ω-conotoxin-GVIA |  |  | effect on penile erection induced by 2 μg of the test peptides into the PVN: reduced penile erection |
| OCCN1CCN(CC/C=C2/c3ccccc3Sc3ccc(C(F)(F)F)cc32)CC1 [cis-flupenthixol] | did not modify the penile erection |  |  |
| CN1CC[C@]23c4c5ccc(O)c4O[C@H]2[C@@H](O)C=C[C@H]3[C@H]1C5 [morphine] |  | reduced in a dose-dependent manner |  |
| COC(=O)[C@@H](N)CCCNC(=N)N[N+](=O)[O-] [L-NAME, N^G -nitro-1-arginine methyl ester] |  | reduced in a dose dependent manner |  |
| C[C@]12N[C@H](Cc3ccccc31)c1ccccc12 [MK 801, dizolcipine] | did not modify the penile erection |  |  |
